The values below come from patent US8541588B2, “Sulfonamide derivatives” (Pfizer Limited, priority 2009, dated 2013).

pIC50: −log10 of the molar value. A value given as a limit tells only on which side of the number the result lay.

In the assay the target is T1, Nav1.7 (or SCN9A) channel; HEK cells stably transfected with hSCN9A (Homo sapiens, UniProt Q15858).
T1 construct: expressed in transfected cells
Briefly: Nav1.7 block, PatchXpress 7000 automated whole-cell voltage clamp, estimated IC50 (EIC50). The class given is cell-based. Particulars: PatchXpress platform; hSCN9A HEK cells held at V1/2 of inactivation; estimated IC50.

T1 sequence (Q15858 whole entry): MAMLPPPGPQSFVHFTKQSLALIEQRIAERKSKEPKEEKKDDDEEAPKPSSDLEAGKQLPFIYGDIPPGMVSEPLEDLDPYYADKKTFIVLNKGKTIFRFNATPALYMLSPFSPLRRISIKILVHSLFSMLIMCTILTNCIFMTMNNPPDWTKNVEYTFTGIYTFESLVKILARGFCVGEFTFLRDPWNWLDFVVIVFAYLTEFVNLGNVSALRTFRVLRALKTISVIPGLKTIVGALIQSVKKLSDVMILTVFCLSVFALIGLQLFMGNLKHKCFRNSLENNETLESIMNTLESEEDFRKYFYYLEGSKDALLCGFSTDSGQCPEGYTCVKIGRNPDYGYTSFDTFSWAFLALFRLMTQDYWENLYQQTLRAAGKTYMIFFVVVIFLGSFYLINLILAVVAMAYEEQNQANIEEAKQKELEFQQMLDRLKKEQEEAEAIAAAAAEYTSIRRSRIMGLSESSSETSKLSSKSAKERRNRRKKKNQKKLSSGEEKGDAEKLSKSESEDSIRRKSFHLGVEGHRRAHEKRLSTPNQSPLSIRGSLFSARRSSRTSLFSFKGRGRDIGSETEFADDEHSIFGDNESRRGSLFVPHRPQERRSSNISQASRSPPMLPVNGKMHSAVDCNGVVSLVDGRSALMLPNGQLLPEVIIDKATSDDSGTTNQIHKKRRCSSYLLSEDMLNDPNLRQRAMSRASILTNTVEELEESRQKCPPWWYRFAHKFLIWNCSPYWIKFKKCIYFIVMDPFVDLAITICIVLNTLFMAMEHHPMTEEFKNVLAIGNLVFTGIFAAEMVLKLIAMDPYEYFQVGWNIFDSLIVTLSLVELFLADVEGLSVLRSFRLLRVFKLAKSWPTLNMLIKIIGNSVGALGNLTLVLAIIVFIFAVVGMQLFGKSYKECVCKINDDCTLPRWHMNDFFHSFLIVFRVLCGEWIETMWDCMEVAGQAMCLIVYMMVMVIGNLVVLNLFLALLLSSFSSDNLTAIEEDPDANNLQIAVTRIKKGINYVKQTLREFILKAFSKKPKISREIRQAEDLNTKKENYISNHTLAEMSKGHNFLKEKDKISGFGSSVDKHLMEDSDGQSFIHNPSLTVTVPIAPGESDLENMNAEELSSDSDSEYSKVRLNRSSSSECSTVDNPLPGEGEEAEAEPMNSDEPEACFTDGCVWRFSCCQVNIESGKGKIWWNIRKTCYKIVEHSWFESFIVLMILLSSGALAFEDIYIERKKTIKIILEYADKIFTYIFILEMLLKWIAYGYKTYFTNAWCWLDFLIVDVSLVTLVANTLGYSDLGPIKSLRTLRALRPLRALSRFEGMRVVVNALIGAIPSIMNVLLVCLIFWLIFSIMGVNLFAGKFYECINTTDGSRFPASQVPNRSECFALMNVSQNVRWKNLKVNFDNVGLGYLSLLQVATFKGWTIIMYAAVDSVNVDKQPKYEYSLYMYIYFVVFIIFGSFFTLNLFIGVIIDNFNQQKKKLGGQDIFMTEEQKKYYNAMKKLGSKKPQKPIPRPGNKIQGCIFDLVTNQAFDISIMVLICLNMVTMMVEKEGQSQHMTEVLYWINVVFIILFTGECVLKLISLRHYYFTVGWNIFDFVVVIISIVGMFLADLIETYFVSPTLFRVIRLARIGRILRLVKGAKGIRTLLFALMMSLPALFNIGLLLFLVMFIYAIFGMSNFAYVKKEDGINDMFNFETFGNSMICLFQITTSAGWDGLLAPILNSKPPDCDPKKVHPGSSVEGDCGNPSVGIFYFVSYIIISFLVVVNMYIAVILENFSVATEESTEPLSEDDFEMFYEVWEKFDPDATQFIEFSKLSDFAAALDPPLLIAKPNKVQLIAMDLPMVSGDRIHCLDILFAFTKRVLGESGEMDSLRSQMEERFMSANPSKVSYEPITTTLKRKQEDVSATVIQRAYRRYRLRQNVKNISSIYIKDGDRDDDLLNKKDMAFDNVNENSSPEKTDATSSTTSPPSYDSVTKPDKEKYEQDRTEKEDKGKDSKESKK

Usually pIC50 stands for the IC50 on a negative log10 scale, so that one unit is a factor of ten. Take `N#Cc1cc(S(=O)(=O)Nc2ncns2)ccc1Oc1ccccc1-c1cc(F)cc(F)c1` [Example 53, 3-cyano-4-[(3′,5′-difluorobiphenyl-2-yl)oxy]-N-1,2,4-thiadiazol-5-ylbenzenesulfonamide]: the pIC50 was 5.45.
For the molecule `CC(C)Oc1ccc(-c2ccccc2Oc2ccc(S(=O)(=O)Nc3ncns3)cc2C#N)cc1` [Example 54, 3-cyano-4-[(4′-isopropoxybiphenyl-2-yl)oxy]-N-1,2,4-thiadiazol-5-ylbenzenesulfonamide], the pIC50 is 6.59.
Still for that read-out and setting: next, `N#Cc1cc(S(=O)(=O)Nc2ncns2)ccc1Oc1ccccc1-c1cccc(OC(F)(F)F)c1` [Example 55, 3-cyano-N-1,2,4-thiadiazol-5-yl-4-{[3′-(trifluoromethoxy)biphenyl-2-yl]oxy}benzenesulfonamide]: 6.04.
Regarding `N#Cc1cc(S(=O)(=O)Nc2ncns2)ccc1Oc1ccccc1-c1ccc(F)cc1F` [Example 56, 3-cyano-4-[(2′,4′-difluorobiphenyl-2-yl)oxy]-N-1,2,4-thiadiazol-5-ylbenzenesulfonamide], the pIC50 was 6.42.
As to `N#Cc1cc(S(=O)(=O)Nc2ncns2)ccc1Oc1ccccc1-c1ccc(OC(F)(F)F)cc1` [Example 57, 3-cyano-N-1,2,4-thiadiazol-5-yl-4-{[4′-(trifluoromethoxy)biphenyl-2-yl]oxy}benzenesulfonamide], the pIC50 is 6.18.
`N#Cc1cc(S(=O)(=O)Nc2ncns2)ccc1Oc1cc(C(F)(F)F)nn1-c1ccc(F)cc1F` [Example 58, 3-cyano-4-{[1-(2,4-difluorophenyl)-3-(trifluoromethyl)-1H-pyrazol-5-yl]oxy}-N-1,2,4-thiadiazol-5-ylbenzenesulfonamide]: the pIC50 is 6.47.
Turning to `N#Cc1cc(S(=O)(=O)Nc2ncns2)ccc1Oc1cc(C(F)(F)F)nn1-c1ccc(F)c(F)c1` [Example 59, 3-cyano-4-{[1-(3,4-difluorophenyl)-3-(trifluoromethyl)-1H-pyrazol-5-yl]oxy}-N-1,2,4-thiadiazol-5-ylbenzenesulfonamide], the pIC50 is 5.64.
On to `N#Cc1cc(S(=O)(=O)Nc2ncns2)ccc1Oc1ccc(CC2CC2)cc1` [Example 60, 3-cyano-4-[4-(cyclopropylmethyl)phenoxy]-N-1,2,4-thiadiazol-5-ylbenzenesulfonamide], for which the pIC50 was 5.55.
Still for that read-out and setting: next, `N#Cc1cc(S(=O)(=O)Nc2ncns2)ccc1Oc1ccc(CN2CCC2)cc1F` [Example 61, 4-[4-(azetidin-1-ylmethyl)-2-fluorophenoxy]-3-cyano-N-1,2,4-thiadiazol-5-ylbenzenesulfonamide]: 4.59; `Cc1n[nH]c(C)c1-c1ccccc1Oc1ccc(S(=O)(=O)Nc2ncns2)cc1C#N` [Example 62, 3-cyano-4-[2-(3,5-dimethyl-1H-pyrazol-4-yl)phenoxy]-N-1,2,4-thiadiazol-5-ylbenzenesulfonamide]: 5.40.
For the molecule `N#Cc1cc(S(=O)(=O)Nc2ncns2)ccc1Oc1ccccc1Oc1ccncc1` [Example 63, 3-cyano-4-[2-(pyridin-4-yloxy)phenoxy]-N-1,2,4-thiadiazol-5-ylbenzenesulfonamide], the pIC50 was 5.63.
With `Cn1cc(-c2ccc(Cl)cc2)c(Oc2ccc(S(=O)(=O)Nc3ncns3)cc2C#N)n1` [Example 64, 4-{[4-(4-chlorophenyl)-1-methyl-1H-pyrazol-3-yl]oxy}-3-cyano-N-1,2,4-thiadiazol-5-ylbenzenesulfonamide], the pIC50 is 6.11.
In the case of `COc1ccc(-n2cc(Oc3ccc(S(=O)(=O)Nc4ncns4)cc3C#N)c(C(C)C)n2)cc1` [Example 65, 3-cyano-4-{[3-isopropyl-1-(4-methoxyphenyl)-1H-pyrazol-4-yl]oxy}-N-1,2,4-thiadiazol-5-ylbenzenesulfonamide], the pIC50 was 4.91.
On the same count and under the same terms, the value for `Cc1cn(Cc2ccccc2)nc1Oc1ccc(S(=O)(=O)Nc2ncns2)cc1C#N` [Example 66, 4-[(1-benzyl-4-methyl-1H-pyrazol-3-yl)oxy]-3-cyano-N-1,2,4-thiadiazol-5-ylbenzenesulfonamide] was 5.58.
Take `CC(C)c1nn(-c2ccccc2Cl)cc1Oc1ccc(S(=O)(=O)Nc2ncns2)cc1C#N` [Example 67, 4-{[1-(2-chlorophenyl)-3-isopropyl-1H-pyrazol-4-yl]oxy}-3-cyano-N-1,2,4-thiadiazol-5-ylbenzenesulfonamide]: the pIC50 is 5.37.
Take `N#Cc1cc(S(=O)(=O)Nc2ncns2)ccc1Oc1ccccc1Oc1ccccc1` [Example 68, 3-cyano-4-(2-phenoxyphenoxy)-N-1,2,4-thiadiazol-5-ylbenzenesulfonamide]: the pIC50 is 6.11.
For `CN1C(=O)CCC1c1ccccc1Oc1ccc(S(=O)(=O)Nc2ncns2)cc1C#N` (centres unmarked) [Example 69, 3-cyano-4-[2-(1-methyl-5-oxopyrrolidin-2-yl)phenoxy]-N-1,2,4-thiadiazol-5-ylbenzenesulfonamide], the pIC50 was 4.44.
As to `Cn1nccc1-c1ccccc1Oc1ccc(S(=O)(=O)Nc2ncns2)cc1C#N` [Example 70, 3-cyano-4-[2-(1-methyl-1H-pyrazol-5-yl)phenoxy]-N-1,2,4-thiadiazol-5-ylbenzenesulfonamide], the pIC50 is 6.96.
For `Cn1nccc1-c1cc(Cl)cc(Cl)c1Oc1ccc(S(=O)(=O)Nc2ncns2)cc1C#N` [Example 71, 3-cyano-4-[2,4-dichloro-6-(1-methyl-1H-pyrazol-5-yl)phenoxy]-N-1,2,4-thiadiazol-5-ylbenzenesulfonamide], the pIC50 is 4.90.
By IC50 is commonly meant the point on the concentration scale where inhibition reaches its midpoint. For the molecule `CCn1nc(C)c(-c2ccccc2Oc2ccc(S(=O)(=O)Nc3ncns3)cc2C#N)c1C` [Example 72, 3-cyano-4-[2-(1-ethyl-3,5-dimethyl-1H-pyrazol-4-yl)phenoxy]-N-1,2,4-thiadiazol-5-ylbenzenesulfonamide], the IC50 is more than 300 nM.
Take `Cn1nccc1-c1cc(F)cc(F)c1Oc1ccc(S(=O)(=O)Nc2ncns2)cc1C#N` [Example 73, 3-cyano-4-[2,4-difluoro-6-(1-methyl-1H-pyrazol-5-yl)phenoxy]-N-1,2,4-thiadiazol-5-ylbenzenesulfonamide]: the pIC50 was 4.63.
In the case of `N#Cc1cc(S(=O)(=O)Nc2ncns2)ccc1Oc1cc(F)ccc1Oc1ccccc1` [Example 74, 3-cyano-4-(5-fluoro-2-phenoxyphenoxy)-N-1,2,4-thiadiazol-5-ylbenzenesulfonamide], the pIC50 is 5.95.
In the case of `COc1cc(C)ccc1Oc1cccc(F)c1Oc1ccc(S(=O)(=O)Nc2ncns2)cc1C#N` [Example 75, 3-cyano-4-[2-fluoro-6-(2-methoxy-4-methylphenoxy)phenoxy]-N-1,2,4-thiadiazol-5-ylbenzenesulfonamide], the negative logarithm of the IC50 (pIC50) is 5.48.
Turning to `N#Cc1cc(S(=O)(=O)Nc2ncns2)ccc1Oc1ccccc1Oc1ccccc1C(N)=O` [Example 76, 2-(2-{2-cyano-4-[(1,2,4-thiadiazol-5-yl-amino)sulfonyl]phenoxy}phenoxy)benzamide], the IC50 is more than 10000 nM.
Turning to `N#Cc1cc(S(=O)(=O)Nc2ncns2)ccc1Oc1ccccc1Oc1ccc(F)cc1` [Example 77, 3-cyano-4-[2-(4-fluorophenoxy)phenoxy]-N-1,2,4-thiadiazol-5-ylbenzenesulfonamide], the pIC50 is 6.44.
`Cc1ccc(Oc2ccc(C#N)cc2)c(Oc2ccc(S(=O)(=O)Nc3ncns3)cc2C#N)c1` [Example 78, 3-cyano-4-[2-(4-cyanophenoxy)-5-methylphenoxy]-N-1,2,4-thiadiazol-5-ylbenzenesulfonamide]: the pIC50 was 6.22.
